According to patent publication US8404805B2, “Characterization of GRP94-ligand interactions and purification, screening, and therapeutic methods relating thereto” (Duke University, priority 2000, dated 2013):

Columns and labels:
[1] = target: T1, GRP94 (Sus scrofa, UniProt Q29092); assay: Polarity-sensitive fluorescent probe binding to GRP94 (fluorescence emission); set-up: GRP94 was purified from porcine pancreas; from tissue; host or cells: porcine pancreas (rough microsomes); species or system porcine; conditions: for probe interaction with native versus heat shocked GRP94 (emission spectra): 0.5 μM GRP94, 5 μM probe, 30 min at 37° C.
Protocol: Fluorescent probes were obtained from Molecular Probes (Eugene, Oreg.). […] All other reagents were obtained from Sigma Chemical Co. (St. Louis, Mo.) unless otherwise indicated. […] Fluorophore Binding Reactions. […] For all assays, control reactions at solvent dilutions identical to experimental conditions were performed to correct for any solvent effects. […] Fluorescence Measurements. Emission spectra were obtained in a FLUOROMAXTM spectrofluorometer (SPEX Industries Inc. of Edison, N.J.) operating in photon counting mode. Spectra were recorded and processed with DM3000f operating software, version 2.1 (SPEX Industries Inc. of Edison, N.J.). For emission scans, slit width was set at 1 nm. […] All spectra were background corrected.

[2] = tested on: HSP90; conditions: Prodromou et al. (1997); cited from earlier work
[3] = target: T1, GRP94; assay: [3H]-NECA competitive displacement assay; conditions: for competition with [3H]-NECA for binding to GRP94: nominal (80 μM) Mg2+; for relative affinities of binding to GRP94 in excess Mg2+: 10 mM Mg(OAc)2; for effect of excess Mg2+ on binding to GRP94: 10 mM Mg(OAc)2 versus nominal magnesium; for relative affinity of GRP94 for the nucleotide: NECA displacement; for binding to GRP94, nucleoside base specificity by [3H]-NECA displacement: competitors at 50 μM
Protocol: (§3) Where indicated, binding reactions were performed in either buffer C (10 mM Tris, pH 7.5, 50 mM KCl, 5 mM MgCl2, 2 mM DTT, 0.01% NP-40, 20 mM Na2MoO4) or 50 mM Tris, pH 7.5, 10 mM Mg(OAc)2. […] Vacuum filtration was performed with an Amersham Pharmacia Biotech (Piscataway, N.J.) vacuum filtration manifold.

[4] = target: T1, GRP94; assay: Tryptophan fluorescence of GRP94 (tertiary conformational state); format: biochemical, porcine; set-up: GRP94 was purified from porcine pancreas; from tissue; host or cells: porcine pancreas (rough microsomes); conditions: 50 μM NECA, 50 μM geldanamycin, 2.5 mM ATP or 2.5 mM ADP, 1 hour at 37° C., excitation 295 nm
Protocol: Tryptophan Fluorescence. Tryptophan fluorescence measurements were conducted in a FLUOROMAX™ spectrofluorometer (Spex Industries, Inc. of Edison, N.J.) with the slit widths set to 1 nm for both excitation and emission. […] All spectra were corrected by subtraction of buffer or buffer plus ligand samples. […] Samples were then cooled to room temperature, transferred to a quartz cuvette, and the spectra collected.

[5] = tested on: BiP; assay: [32P]ATP binding assay; set-up: species or system porcine; conditions: 50 μM [32P]ATP, 1 hour on ice
Protocol: (§1) ATP Binding Assay. Six:g of GRP94, BiP, and Hsp90 was incubated with 50:M (-[^32P] ATP (1000 ΦCi/Φmol) (Amersham Pharmacia Biotech of Piscataway, N.J.) in buffer B on ice for 1 hour. Nitrocellulose filters (BA85) (Schleicher & Schuell of Keene, N.H.) were individually wet in buffer B before use, and bound versus free [^32P]-ATP was separated by vacuum filtration. Filters were washed with 3×2 mL of ice cold buffer B, placed in 5 mL of scintillation fluid, vortexed, and counted.

[6] = tested on: Hsp90; assay: [32P]ATP binding assay; set-up: species or system rat; conditions: 50 μM [32P]ATP, 1 hour on ice
Protocol: as §1

[7] = target: T1, GRP94; assay: [32P]ATP binding assay; set-up: GRP94 was purified from porcine pancreas; from tissue; host or cells: porcine pancreas (rough microsomes); species or system porcine; conditions: 50 μM [32P]ATP, 1 hour on ice
Protocol: as §1

[8] = target: casein kinase II (Homo sapiens, UniProt P68400); assay: Casein kinase assay; format: biochemical; conditions: 180 μM NECA or radicicol in 3.6% DMSO, 5 μg/ml heparin, 5 mM GTP
Protocol: (§2) Phosphorylation Assays. […] For the casein kinase assay, 1 unit of casein kinase II was incubated as described above, with the addition of 4:M casein. […] The 25:I reaction mixtures were incubated at 37° C. for 1 hour and quenched by addition of 10% trichloroacetic acid. Samples were analyzed by 10% SDS-PAGE gels and the phosphorylated species were quantitated using a Fuji MACBAS1000™ phosphorimaging system (Fuji Medical Systems of Stamford, Conn.).

[9] = target: T1, GRP94; assay: GRP94 autophosphorylation assay; format: biochemical, porcine; set-up: GRP94 was purified from porcine pancreas; from tissue; host or cells: porcine pancreas (rough microsomes); conditions: 180 μM NECA or radicicol in 3.6% DMSO, 5 μg/ml heparin, 5 mM GTP
Protocol: as §2

[10] = target: T1, GRP94; assay: [3H]-NECA binding assay (vacuum filtration)
Protocol: as §3

[11] = tested on: BiP; assay: [3H]-NECA binding assay (vacuum filtration); conditions: 20 nM [3H]-NECA, 60 min on ice
Protocol: as §3

[12] = target: T1, GRP94; assay: Isothermal titration calorimetry; format: binding, porcine; set-up: GRP94 was purified from porcine pancreas; from tissue; host or cells: porcine pancreas (rough microsomes); conditions: 5 μM GRP94, 152 μM NECA stock, 25° C.
Protocol: Isothermal calorimetry experiments were performed at 25° C. using a MSC calorimeter (MicroCal Inc. of Northampton, Mass.). […] Necessary corrections were made by subtracting the heats of dilution resulting from buffer addition to protein solution and ligand solution into buffer.

[13] = target: T1, GRP94; assay: ATPase assay (HPLC); format: biochemical, porcine; set-up: GRP94 was purified from porcine pancreas; from tissue; host or cells: porcine pancreas (rough microsomes)
Protocol: Samples were then spun through a CENTRICON®-30 (Amicon of Beverly, Mass.) at 10,000 rpm, 4° C. to separate protein from nucleotide. A final concentration of 50 mM (NH4)2HPO4, pH 7.0, and 4:M AMP, pH 7.0, was added to dilutions of the above samples and centrifuged at 15,200 rpm for 5 minutes at 4° C. 100:L of supernatant was then fractionated on a […] column (Alltech of Deerfield, Ill.), using a Series 1050 Hewlett Packard HPLC system. Elution of nucleotides was performed by step gradient elution using a mobile phase of 150 mM (NH4)2HPO4, pH 5.2, at 1.2 ml/min for the first ten minutes, followed by 300 mM (NH4)2HPO4, pH 5.2, at a flow rate of 2 ml/min for the remainder of the elution. In this protocol, ADP and ATP were well resolved, with ADP eluting at 7 minutes and ATP at 12 minutes. Peak height values were used in calculations of percent hydrolysis and ADP formation. Spontaneous hydrolysis was determined for each ATP concentration in paired incubations lacking GRP94. The AMP was used as an internal reference standard to control for equivalent sample loading.

[14] = target: HSP90 (Saccharomyces cerevisiae, UniProt P02829); conditions: Roe et al. (1999); cited from earlier work
HSP90 (Saccharomyces cerevisiae, UniProt P02829), sequence (P02829 whole entry): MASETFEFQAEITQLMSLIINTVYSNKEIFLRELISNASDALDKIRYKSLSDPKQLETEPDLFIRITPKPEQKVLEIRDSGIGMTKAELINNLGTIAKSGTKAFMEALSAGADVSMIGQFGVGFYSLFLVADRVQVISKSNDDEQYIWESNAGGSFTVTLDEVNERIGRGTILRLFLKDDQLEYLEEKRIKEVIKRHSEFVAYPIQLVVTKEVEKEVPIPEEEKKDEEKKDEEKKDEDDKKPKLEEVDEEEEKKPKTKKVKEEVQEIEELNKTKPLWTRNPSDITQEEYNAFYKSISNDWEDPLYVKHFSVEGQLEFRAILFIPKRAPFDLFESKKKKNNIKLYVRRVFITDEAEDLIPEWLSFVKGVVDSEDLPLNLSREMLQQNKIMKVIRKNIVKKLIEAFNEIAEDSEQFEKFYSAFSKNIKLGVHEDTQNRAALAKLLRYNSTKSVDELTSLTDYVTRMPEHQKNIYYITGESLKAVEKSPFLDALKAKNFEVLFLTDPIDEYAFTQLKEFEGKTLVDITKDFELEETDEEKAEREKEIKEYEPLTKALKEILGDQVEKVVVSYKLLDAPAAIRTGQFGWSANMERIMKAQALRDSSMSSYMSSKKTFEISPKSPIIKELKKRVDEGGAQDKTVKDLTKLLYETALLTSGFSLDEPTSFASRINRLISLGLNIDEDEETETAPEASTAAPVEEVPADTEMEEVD

casein kinase II, sequence (P68400 whole entry): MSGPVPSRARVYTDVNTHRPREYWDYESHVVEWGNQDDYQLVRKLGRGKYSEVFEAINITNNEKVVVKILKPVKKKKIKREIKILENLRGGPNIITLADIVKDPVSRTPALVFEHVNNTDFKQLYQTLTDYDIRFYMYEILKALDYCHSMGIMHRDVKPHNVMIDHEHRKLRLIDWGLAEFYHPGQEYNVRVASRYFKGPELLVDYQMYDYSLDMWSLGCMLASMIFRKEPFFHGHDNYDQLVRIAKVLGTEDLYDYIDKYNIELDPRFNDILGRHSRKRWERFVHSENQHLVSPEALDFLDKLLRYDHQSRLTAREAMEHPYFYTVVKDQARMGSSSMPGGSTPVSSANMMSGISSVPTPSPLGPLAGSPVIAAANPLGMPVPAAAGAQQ
casein kinase II, sequence (P67870 whole entry partner): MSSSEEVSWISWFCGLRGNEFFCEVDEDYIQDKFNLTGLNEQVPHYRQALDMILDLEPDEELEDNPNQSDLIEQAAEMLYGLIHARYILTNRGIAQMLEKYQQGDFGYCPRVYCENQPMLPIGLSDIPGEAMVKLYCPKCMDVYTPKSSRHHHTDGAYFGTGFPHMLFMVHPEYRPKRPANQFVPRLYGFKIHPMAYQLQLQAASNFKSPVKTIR
T1 sequence (Q29092 22-804): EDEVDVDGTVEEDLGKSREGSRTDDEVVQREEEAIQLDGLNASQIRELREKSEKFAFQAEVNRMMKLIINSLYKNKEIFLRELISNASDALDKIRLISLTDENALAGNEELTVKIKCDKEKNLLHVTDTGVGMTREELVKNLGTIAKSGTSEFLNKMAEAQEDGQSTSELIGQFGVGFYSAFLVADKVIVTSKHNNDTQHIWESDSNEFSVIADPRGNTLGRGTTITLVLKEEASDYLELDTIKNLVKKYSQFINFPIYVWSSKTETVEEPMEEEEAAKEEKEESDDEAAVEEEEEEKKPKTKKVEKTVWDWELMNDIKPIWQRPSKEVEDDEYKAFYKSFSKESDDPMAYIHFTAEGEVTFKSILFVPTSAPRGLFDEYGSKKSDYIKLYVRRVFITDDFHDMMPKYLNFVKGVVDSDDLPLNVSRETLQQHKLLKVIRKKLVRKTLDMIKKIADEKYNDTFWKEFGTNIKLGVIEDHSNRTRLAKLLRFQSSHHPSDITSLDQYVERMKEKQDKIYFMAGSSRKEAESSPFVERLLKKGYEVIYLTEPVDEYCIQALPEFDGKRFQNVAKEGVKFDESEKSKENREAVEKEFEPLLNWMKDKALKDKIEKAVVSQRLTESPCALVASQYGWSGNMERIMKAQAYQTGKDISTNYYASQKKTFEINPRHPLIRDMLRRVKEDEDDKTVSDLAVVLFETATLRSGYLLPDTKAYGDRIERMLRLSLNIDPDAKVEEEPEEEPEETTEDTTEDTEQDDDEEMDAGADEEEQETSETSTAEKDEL

Q: For `O=S(=O)(O)c1cccc2cccc(Nc3ccccc3)c12` [8-ANS, 1,8-anilinonaphthalenesulfonate], which “agonist activity for GRP94 activation” value [1] is on record?
A: Its value is “lacks agonist activity”.

Q: What about the “probe interaction with native versus heat shocked GRP94 (emission spectra)” value [1] of the same compound?
A: Its value is “displays weak interactions with native GRP94, yet binds avidly following heat shock”.

Q: For `Nc1ncnc2c1ncn2[C@@H]1O[C@H](COP(=O)(O)OP(=O)(O)O)[C@@H](O)[C@H]1O` [ADP], which “affinity of N-terminal domain of Hsp90 for ADP relative to ATP” value [2] is on record?
A: Its value is “four”.

Q: What about the “competition with [3H]-NECA for binding to GRP94” value (shortened to “competition with [3H]-NECA”) ([3]; 20 nM [3H]-NECA) of the same compound?
A: The value was “effectively competed”.

Q: What about the “relative affinities of binding to GRP94 in excess Mg2+” value [3] of the same compound?
A: The value was “nearly identical relative affinities”.

Q: And the “effect of excess Mg2+ on binding to GRP94” value (from here on “effect of excess Mg2+”) [3]?
A: Its value is “markedly stimulated”.

Q: What about the “relative affinity of GRP94 for the nucleotide” value (“relative affinity of GRP94” for short) [3] of the same compound?
A: The value was “quite low”.

Q: What about the “change of GRP94 tryptophan fluorescence” value [4] of the same compound?
A: Its value is “decreased”.

Q: For `Nc1ncnc2c1ncn2[C@@H]1O[C@H](COP(=O)(O)O)[C@@H](O)[C@H]1O` [AMP], which “competition with [3H]-NECA” value ([3]; 20 nM [3H]-NECA) is on record?
A: The value was “effectively competed”.

Q: And the “effect of excess Mg2+” value [3]?
A: The value was “markedly stimulated”.

Q: What about the “relative affinity of GRP94” value [3] of the same compound?
A: Its value is “quite low”.

Q: For `Nc1ncnc2c1ncn2[C@@H]1O[C@H](COP(=O)(O)OP(=O)(O)OP(=O)(O)O)[C@@H](O)[C@H]1O` [ATP], which ATP binding [5] is on record?
A: The ATP binding was “displayed the expected ATP binding activity”.

Q: What about the ATP binding [6] of the same compound?
A: The ATP binding was “no ATP binding was observed”.

Q: What about the “molar excess required for 50% inhibition of [3H]-NECA binding” value ([3]; 20 nM [3H]-NECA) of the same compound?
A: Its value is ~1000 -fold molar excess.

Q: What about the “competition with [3H]-NECA” value ([3]; 20 nM [3H]-NECA) of the same compound?
A: Its value is “effectively competed”.

Q: What about the “relative affinities of binding to GRP94 in excess Mg2+” value [3] of the same compound?
A: Its value is “nearly identical relative affinities”.

Q: What about the “effect of excess Mg2+” value [3] of the same compound?
A: The value was “markedly stimulated”.

Q: What about the “relative affinity of GRP94” value [3] of the same compound?
A: The value was “quite low”.

Q: And the “binding to GRP94, nucleoside base specificity by [3H]-NECA displacement” value (“binding to GRP94 … [3H]-NECA displacement” for short) ([3]; 20 nM [3H]-NECA)?
A: The value was “could bind”.

Q: What about the “efficacy of competing NECA binding, ATP relative to ADP” value ([3]; nominal Mg2+) of the same compound?
A: Its value is “eight”.

Q: What about the ATP binding [7] of the same compound?
A: The ATP binding was “no ATP binding was observed”.

Q: What about the “change of GRP94 tryptophan fluorescence” value [4] of the same compound?
A: The value was “decreased”.

Q: For `Nc1ccn([C@@H]2O[C@H](COP(=O)(O)OP(=O)(O)OP(=O)(O)O)[C@@H](O)[C@H]2O)c(=O)n1` [CTP], which “binding to GRP94 … [3H]-NECA displacement” value ([3]; 20 nM [3H]-NECA) is on record?
A: The value was “little to no binding”.

Q: For `Nc1nc2c(ncn2[C@@H]2O[C@H](COP(=O)(O)OP(=O)(O)OP(=O)(O)O)[C@@H](O)[C@H]2O)c(=O)[nH]1` [GTP], which “effect on casein kinase II activity” value [8] is on record?
A: The value was “markedly attenuated”.

Q: What about the “binding to GRP94 … [3H]-NECA displacement” value ([3]; 20 nM [3H]-NECA) of the same compound?
A: Its value is “little to no binding”.

Q: What about the “effect on GRP94 autophosphorylation (GRP94-derived kinase) activity” value [9] of the same compound?
A: The value was “markedly attenuated”.

Q: For `CCNC(=O)[C@H]1O[C@@H](n2cnc3c(N)ncnc32)[C@H](O)[C@@H]1O` [NECA, N-ethylcarboxamidoadenosine], which “effect on casein kinase II activity” value [8] is on record?
A: Its value is “neither NECA nor radicicol, both of which bind to the N-terminal nucleotide binding domain of GRP94, significantly inhibit GRP94 derived or casein kinase II activity below the solvent background”.

Q: What about the “effect of excess Mg2+” value [3] of the same compound?
A: Its value is “without effect”.

Q: And the “slope of Hill plot” value [10]?
A: Its value is 1.2.

Q: And the “[3H]-NECA binding activity” value ([10]; 20 nM [3H]-NECA, 60 min on ice)?
A: The value was “readily detectable”.

Q: What about the binding stoichiometry ([10]; radioligand, vacuum filtration) of the same compound?
A: The binding stoichiometry was 0.5 mol [^3H]-NECA/mol GRP94 monomer.

Q: And the “[3H]-NECA binding activity” value [11]?
A: The value was “not observed”.

Q: And the “binding stoichiometry by isothermal titration calorimetry” value [12]?
A: The value was 1.1 mol NECA/mol GRP94 dimer.

Q: And the “effect on GRP94 autophosphorylation (GRP94-derived kinase) activity” value [9]?
A: Its value is “neither NECA nor radicicol, both of which bind to the N-terminal nucleotide binding domain of GRP94, significantly inhibit GRP94 derived or casein kinase II activity below the solvent background”.

Q: What about the “effect on GRP94 ATPase activity” value [13] of the same compound?
A: The value was “sensitive to inhibition by NECA”.

Q: And the “change of GRP94 tryptophan fluorescence” value [4]?
A: The value was “increased the tryptophan fluorescence”.

Q: With `CCC(=O)c1ccc2cc(N(C)C)ccc2c1` [Prodan, 6-propionyl-2-(dimethylamino)naphthalene] as the compound, how does the “probe interaction with native versus heat shocked GRP94 (emission spectra)” value [1] read?
A: The value was “does not interact with the hydrophobic binding pocket(s) displayed by heat shocked GRP94”.

Q: For `O=c1ccn([C@@H]2O[C@H](COP(=O)(O)OP(=O)(O)OP(=O)(O)O)[C@@H](O)[C@H]2O)c(=O)[nH]1` [UTP], which “binding to GRP94 … [3H]-NECA displacement” value ([3]; 20 nM [3H]-NECA) is on record?
A: The value was “little to no binding”.

Q: What does the source list for `Nc1ncnc2c1ncn2[C@@H]1O[C@H](CO)[C@@H](O)[C@H]1O` [adenosine]?
A: relative displacement activity of [3H]-NECA ([3]; 20 nM [3H]-NECA): approximating that observed for ADP; effect of excess Mg2+ on binding to GRP94 [3]: without effect

Q: With `Nc1ncnc2c1ncn2[C@H]1C[C@H](O)[C@@H](COP(=O)(O)OP(=O)(O)OP(=O)(O)O)O1` [deoxyATP] as the compound, how does the “binding to GRP94 … [3H]-NECA displacement” value ([3]; 20 nM [3H]-NECA) read?
A: Its value is “could bind”.

Q: For `C[C@@H]1C[C@H]2O[C@@H]2/C=C\C=C\C(=O)Cc2c(Cl)c(O)cc(O)c2C(=O)O1` [radicicol], which “effect on casein kinase II activity” value [8] is on record?
A: Its value is “neither NECA nor radicicol, both of which bind to the N-terminal nucleotide binding domain of GRP94, significantly inhibit GRP94 derived or casein kinase II activity below the solvent background”.

Q: And the expected binding stoichiometry [14]?
A: Its expected binding stoichiometry is 2 mol radicicol/mol Hsp90 dimer.

Q: Which results are given for heparin?
A: effect on casein kinase II activity [8]: markedly attenuated; effect on GRP94 autophosphorylation (GRP94-derived kinase) activity [9]: markedly attenuated
